Assay results taken from publication PMC3838870 (Journal of inorganic biochemistry, 2013).
Like-named read-outs stand apart in the source and are kept apart here.

What was measured:
[1] = Chelator-induced erythrocyte hemolysis; type: cell-based, human; conditions: human, human erythrocyte suspension, pH 7.4
[2] = test system: chloroquine-sensitive (3D7) Plasmodium falciparum; experiment: Parasite growth inhibition, [3H]-hypoxanthine incorporation, 3D7; type: cell-based
[3] = test system: chloroquine-resistant (7G8) Plasmodium falciparum; conditions: read-out: Growth inhibition efficacy (IC50), 7G8 P. falciparum; chloroquine-resistant 7G8, mean ± SD (n = 6); previously reported; cited from earlier work
[4] = test system: chloroquine-sensitive (3D7) Plasmodium falciparum; conditions: read-out: IC50, 3D7 malaria strain; cited from earlier work
human erythrocytes = experiment: Chelator-induced erythrocyte hemolysis; type: cell-based; conditions: control 0.0175± 0.0005
[5] = test system: synchronized chloroquine-sensitive P. falciparum (3D7); experiment: Stage-specific parasite growth; type: cell-based, Plasmodium falciparum; conditions: chelator 7.5 μM, 3D7 synchronized at ring-stage
[6] = test system: non-parasitized human erythrocytes; experiment: Effect of chelators on erythrocyte shape; type: cell-based; conditions: 2.5–15 μM chelator, 48 h, Giemsa staining

Effect on erythrocyte shape [6]	SMILES	hemolysis at 10 μM [1]	hemolysis at 20 μM [1]	hemolysis at 30 μM [1]	hemolysis at 45 μM [1]	hemolysis at 60 μM [1]	IC50 ([2]; Plasmodium falciparum, 3D7, 48 h, read-out: Growth inhibition efficacy (IC50), 3D7 P. falciparum)	IC50 ([2]; Plasmodium falciparum, 3D7, 48 h, read-out: Growth inhibition efficacy (IC50), 3D7 P. falciparum, chloroquine-sensitive 3D7, 48 h culture, mean ± SD (n = 6))	IC50 [3]	hemolysis at 15 μM [1]	hemolysis at 25 μM [1]	IC50 [4]	Supernatant hemoglobin, % MCHC (hemolysis) (human erythrocytes; chelator 0.5 μM)	Supernatant hemoglobin, % MCHC (hemolysis) (human erythrocytes; chelator 1 μM)	Supernatant hemoglobin, % MCHC (hemolysis) (human erythrocytes; chelator 1.5 μM)	Supernatant hemoglobin, % MCHC (hemolysis) (human erythrocytes; chelator 2 μM)	Supernatant hemoglobin, % MCHC (hemolysis) (human erythrocytes; chelator 3 μM)	% Inhibition, rings, 24 hour culture [5]	IC50 ([2]; read-out: Growth inhibition efficacy (IC50), 3D7 P. falciparum, chloroquine-sensitive 3D7, 48 h culture, mean ± SD (n = 6))
	CC(=O)N(O)CCCCCNC(=O)CCC(=O)N(O)CCCCCNC(=O)CCC(=O)N(O)CCCCCN [DFO, desferrioxamine]	0.0193 ± 0.0005%	0.0182 ± 0.0005%	0.0186 ± 0.0008%	0.0192 ± 0.0001%	0.0182 ± 0.0002%	23.4 ± 3.4 µM	23.5 µM	18.5 µM										
	Cc1ncc(CO)c(/C=N/NC(=O)c2ccncc2)c1O [PIH, pyridoxal isonicotinoyl hydrazone]	0.0195 ± 0.0004%	0.019 ± 0.0006%	0.0192 ± 0.0008%						0.0188 ± 0.0003%	0.0193 ± 0.0004%	50 µM							
no apparent effect on erythrocyte shape	O=C(NN=Cc1c(O)ccc2ccccc12)c1ccncc1 [compound 311, 2-hydroxy-1-naphthylaldehyde isonicotinoyl hydrazone]								4.46 ± 0.3 µM				0.0193±0.0005 % MCHC	0.0195±0.0010 % MCHC	0.0200±0.0006 % MCHC	0.0203±0.0005 % MCHC	0.0197±0.0005 % MCHC	99 ± 8.4%	4.45 ± 1.7 µM
